From patent US10533231B2, “Artificial bioluminescent enzyme” (NATIONAL INSTITUTE OF ADVANCED INDUSTRIAL SCIENCE AND …, priority 2012, dated 2020)

These molecules were tested on COS-7 cells (assay: Comparison of luminescence intensity of ALucs (Example 1-2)). Conditions: COS-7 cultured overnight, Promega assay solution, LAS-4000.
Type: cell-based, African green monkey
Source text: The artificial luciferase (ALuc) genes synthesized by the above process were subcloned into mammalian cell expression vectors (pcDNA3.1 (+)). Each expression vector was transfected with African green monkey kidney-derived COS-7 cells, and the luminescence intensity, luminescence stability, and red-shifted degree of artificial luciferases (ALucs) were compared (FIGS. 2 to 5).
First, the luminescence intensity of artificial luciferases (ALucs) was compared (FIG. 2). For the comparison, COS-7 cells containing a vector encoding each luciferase were cultured overnight, and then the relative luminescence intensity was measured by using an assay solution, which is a mixture of a cell lysis solution and a substrate, produced by Promega, and a luminescence image analyzer (LAS-4000).

Molecule	luminescence intensity higher than that of conventional GLuc, Renilla luciferase and MpLuc4
ALuc15: artificial luciferase, SEQ ID NO: 12 (protein, Synthetic ALuc15) MMGIKVLFALICFALVQANPTENKDDIDIVGVEGKFGTTDLETDLFTIVEDMNVISRDTDVDANRADRGKLPGKKLPLEVLKELEANAQKAGCTRGCLICLSHIKCTAKMKKWLPGRCESWEGDKETGQGGIGEAIVDIPEIPGFKDLEPMEQFIAQVDLCVDCTTGCLKGLANVKCSDLLKKWLPSRCATFASKIQAQVDKIKGAGGS	about 50 folds
ALuc10: artificial luciferase, SEQ ID NO: 11 (protein, Synthetic ALuc10) MMEIQVLFALICFALVQANPTENKDDIDIVGVEGKFGTTDLETDLFTIVEDMNVISRDTNLANSDADRGKLPGKKLPLEVLKELEANAQKAGCTRGCLICLSHIKCTAKMKKWLPGRCESWEGDKETGQGGIGEAIVDIPEIPGFKDLEPMEQFIAQVDLCVDCTTGCLKGLANVKCSDLLKKWLPSRCATFASKIQAQVDKIKGAGGS	about 50 folds
ALuc18: artificial luciferase, SEQ ID NO: 14 (protein, Synthetic ALuc18) MMGIKVLFALICFALVQANPTENKDDIDIVGVEGKFGTTDLETDLFTIVEDMNVISRDTDVDANRADRGRRGHGGLPGKKMPLEVLLELEANAQRAGCTRGCLICLSKIKCTAKMKKWLPGRCESWAGDKETGQGGITEEETVDIPEIPGFKDLEPMEQFIAQVDLCVDCTTGCLKGLANVKCSDLLKKWLPSRCATFASKIQAQVDKIKGAGGS	about 50 folds

Each molecule was assayed on COS-7 cells (assay: Enzymatic activity confirmation of ALuc (section 3-1, 3-2)). Conditions: vs conventional copepod luciferases.
Type: cell-based, African monkey
Procedure: First, using a known lipid reagent for gene introduction, an expression vector encoding ALuc is introduced into African monkey-derived COS-7 cells; as a control, an expression vector having a known GLuc without any mutation into the cells is also introduced in the same manner. At a predetermined time (from 10 to 20 hours, for example, 16 hours) after the introduction of the vector, a cell lysate is prepared using a known lysis reagent.
Thereafter, the cell lysate is mixed with a known substrate solution containing coelenterazine, and its color intensity, temporal stability in luminescence, etc., are measured.
The luminescence intensity may be found by measuring the intensity at a specific wavelength using a known luminescence spectrophotometer after addition of a known substrate. By performing the measurement every minute, the temporal stability in luminescence can be evaluated. To measure a shift to a longer wavelength, scanning of the entire wavelength is necessary.

Molecule	luminescence stability (general statement)
ALuc17: artificial luciferase, SEQ ID NO: 24 (protein, Synthetic ALuc17) MMGIKVLFALICFALVQANPTENKDDIDIVGVEGKFGTTDLETDLFTIVEDMNVISRDTDVDANRADRGRRGKMPGKKLPKAVLIELEANAQKAGCHRGCLICLSHIKCTAKMKEWLPGRCESWGGDKETGQAGIVGAIVDIPEIPGFKDLEPMEQFIAQVDLCVDCTTGCLKGLANVKCSDLLKKWLPSRCATFASKIQAQVDKIKGAGGS	remarkably stable luminescence signals
ALuc15: artificial luciferase, SEQ ID NO: 12 (protein, Synthetic ALuc15) MMGIKVLFALICFALVQANPTENKDDIDIVGVEGKFGTTDLETDLFTIVEDMNVISRDTDVDANRADRGKLPGKKLPLEVLKELEANAQKAGCTRGCLICLSHIKCTAKMKKWLPGRCESWEGDKETGQGGIGEAIVDIPEIPGFKDLEPMEQFIAQVDLCVDCTTGCLKGLANVKCSDLLKKWLPSRCATFASKIQAQVDKIKGAGGS	remarkably stable luminescence signals
ALuc26: artificial luciferase, SEQ ID NO: 28 (protein, Synthetic Aluc26) MMGVKLIFAVLCVAVAQANATINENFEDIDLVAIGGSFADLETDLFTIVEDMNVISRDTDVDANRGGRGRRGKLPGKKLPLEVLKELEANAQKAGCTRGCLICLSHIKCTAKMKKWLPGRCESWEGDKETGQGGIGEAIVDIPEIPGFKNLAPMEQFIAQVDLCADCTTGCLKGLANVKCSNLLKKWLPSRCAGFANKIQAQVDTIKGLGGS	remarkably stable luminescence signals
ALuc29: artificial luciferase, SEQ ID NO: 31 (protein, Synthetic ALuc29) MMGVKLIFAVLCVAVAQANATINENFEDIDLVAIGGSFADLETDLFTIVEDMNVISRDTDVDANRGGRGRRGKLPGKKLPLEVLKELEANAQKAGCTRGCLICLSHIKCTAKMKKWLPGRCESWEGDKETGQGGIGEAIVDIPEIPGFKWLAPMEQFIAQVDLCADCTTGCLKGLANVWCSWLLKKWLPSRCAGFAWKIQAQVDTIKGLGGS	remarkably stable luminescence signals
ALuc28: artificial luciferase, SEQ ID NO: 30 (protein, Synthetic ALuc28) MMGVKLIFAVLCVAVAQANATINENFEDIDLVAIGGSFADLETDLFTIVEDMNVISRDTDVDANRGGRGRRGKLPGKKLPLEVLKELEANAQKAGCTRGCLICLSHIKCTAKMKKWLPGRCESWEGDKETGQGGIGEAIVDIPEIPGFKYLAPMEQFIAQVDLCADCTTGCLKGLANVYCSYLLKKWLPSRCAGFAYKIQAQVDTIKGLGGS	remarkably stable luminescence signals
ALuc27: artificial luciferase, SEQ ID NO: 29 (protein, Synthetic ALuc27) MMGVKLIFAVLCVAVAQANATINENFEDIDLVAIGGSFADLETDLFTIVEDMNVISRDTDVDANRGGRGRRGKLPGKKLPLEVLKELEANAQKAGCTRGCLICLSHIKCTAKMKKWLPGRCESWEGDKETGQGGIGEAIVDIPEIPGFKFLAPMEQFIAQVDLCADCTTGCLKGLANVFCSFLLKKWLPSRCAGFAFKIQAQVDTIKGLGGS	remarkably stable luminescence signals
ALuc19: artificial luciferase, SEQ ID NO: 25 (protein, Synthetic ALuc19) MMGIKVLFALICFALVQANPTENKDDIDIVGVEGKFGTTDLETDLFTIVEDMNVISRDTDVDANRADRGRRGRKLPGKKLPKEVLKILEANAQRAGCHRGCLICLSHIKCTAKMKQWLPGRCESWEGDKETGQGGIGGPIVDIGVLGPEIPGFKDLEPMEQFIAQVDLCVDCTTGCLKGLANVKCSDLLKKWLPSRCATFASKIQAQVDKIKGAGGS	remarkably stable luminescence signals
ALuc21: artificial luciferase, SEQ ID NO: 26 (protein, Synthetic ALuc21) MMGIKVLFALICFALVQANATINEEDIDLVAIGGSFATTDLETDLFTIVEDMNVISRDTDVDANRADRGRRGKLPGKKLPLEVLKELEANAQKAGCTRGCLICLSHIKCTAKMKKWLPGRCESWEGDKETGQGGIGEAIVDIPEIPGFKDLEPMEQFIAQVDLCVDCTTGCLKGLANVKCSDLLKKWLPSRCATFASKIQAQVDKIKGAGGS	remarkably stable luminescence signals
ALuc18: artificial luciferase, SEQ ID NO: 14 (protein, Synthetic ALuc18) MMGIKVLFALICFALVQANPTENKDDIDIVGVEGKFGTTDLETDLFTIVEDMNVISRDTDVDANRADRGRRGHGGLPGKKMPLEVLLELEANAQRAGCTRGCLICLSKIKCTAKMKKWLPGRCESWAGDKETGQGGITEEETVDIPEIPGFKDLEPMEQFIAQVDLCVDCTTGCLKGLANVKCSDLLKKWLPSRCATFASKIQAQVDKIKGAGGS	remarkably stable luminescence signals

These molecules were tested on artificial luciferase (ALuc) (assay: Effects of heavy metal ions as additive for assay buffer (Example 2-3)). Conditions: 1 ppm in HBSS buffer after C3 lysis.
Type: cell-based
Procedure: This example examined the effects of a heavy metal ion as an additive for an assay buffer (FIG. 25). […] After 16-hour incubation in a CO2 incubator, 50 μL of a C3 solution was added to each well to allow for cell lysis for 20 minutes. 1 ppm of each type of heavy metal ion shown in FIG. 25 and 50 μL of a substrate-containing HBSS buffer were added to the lysate simultaneously, and the relative luminescence intensities were immediately measured with an LAS-4000. After the substrate-containing assay buffer was further added, the luminescence at the 8- and 16-minute point was measured to examine the luminescence stability.

comprehensive evaluation of luminescence intensity and stability	Molecule	effect of heavy metal additive on luminescence intensity
excellent additives	[Al+3] [Al(III)]	suitable to be added to C3 and HBSS
–	[Ca+2] [Ca(II)]	suitable to be added to C3 and HBSS
–	[Cd+2] [Cd(II)]	significantly decrease the luminescence intensity
–	[Co+2] [Co(II)]	significantly decrease the luminescence intensity
excellent additives	[Fe+3] [Fe(III)]	suitable to be added to C3 and HBSS
–	[Mg+2] [Mg(II)]	suitable to be added to C3 and HBSS
excellent additives	[Mo] [Mo(VI)]	–
–	[Ni+2] [Ni(II)]	significantly decrease the luminescence intensity
excellent additives	[Zn+2] [Zn(II)]	–

Molecule	comprehensive evaluation of luminescence intensity and stability	effect of heavy metal additive on luminescence intensity
[Cu+2] [Cu(II)]	excellent additives	suitable to be added to C3 and HBSS
